Key:
[1] = system: IFNα-induced pSTAT5 (Tyk2-mediated signal transduction); test: IFNα-induced STAT phosphorylation in human whole blood; type: cell-based; settings: 1 h incubation with compound, 1000 U/mL IFNα A/D for 15 min, CD3 positive population, read-out: Human Whole blood IFNa pSTAT5 IC50
Description: IFNα-Induced STAT Phosphorylation in Human Whole Blood
After an hour long incubation with compound, human whole blood (drawn with ACD-A as anticoagulant) was stimulated with 1000 U/mL recombinant human IFNα A/D (R&D Systems 11200-2) for 15 min. The stimulation was stopped by adding Fix/Lyse buffer (BD 558049). Cells were stained with a CD3 FITC antibody (BD 555916), washed, and permeabilized on ice using Perm III buffer (BD 558050). Cells were then stained with an Alexa-Fluor 647 pSTAT5 (pY694) antibody (BD 612599) for 60 min prior to analysis on the iQue Plus. The amount of pSTAT5 expression was quantitated by median fluorescence intensity after gating on the CD3 positive population.

[2] = in vitro; settings: human, Caco-2, pH 7.4

Row | IC50 [1] | Papp A→B at 2 h, 3 μM [2] | efflux ratio at 2 h, 3 μM [2] | Structure (SMILES)
1 | 248 nM | 23.3 ×10⁻⁶ cm/s | 1.1 | [2H]C([2H])([2H])NC(=O)c1nnc(NC(=O)C2C[C@H]2C)cc1Nc1cccc(-c2nnn(C)n2)c1OC (mixture of isomers) [Example 25, 4-{[2-methoxy-3-(2-methyl-2H-1,2,3,4-tetrazol-5-yl)phenyl]amino}-N-(^2H3)methyl-6-[(1R,2R)-2-methylcyclopropaneamido]pyridazine-3-carboxamide]
2 | 34 nM | 65 ×10⁻⁶ cm/s | 0.5 | [2H]C([2H])([2H])NC(=O)c1nnc(NC(=O)C2CC2)cc1Nc1cccc(-c2noc(CF)n2)c1OC [Example 1, 6-(cyclopropanecarboxamido)-4-((3-(5-(fluoromethyl)-1,2,4-oxadiazol-3-yl)-2-methoxyphenyl)amino)-N-(methyl-d3)pyridazine-3-carboxamide]
3 | 13 nM | 66.1 ×10⁻⁶ cm/s | 0.3 | [2H]C([2H])([2H])NC(=O)c1nnc(NC(=O)C2CC2)cc1Nc1cccc(-c2noc(COC(C)C)n2)c1OC [Example 2, 6-(cyclopropanecarboxamido)-4-((3-(5-(isopropoxymethyl)-1,2,4-oxadiazol-3-yl)-2-methoxyphenyl)amino)-N-(methyl-d3)pyridazine-3-carboxamide]
4 | 31 nM | – | – | CCOCc1nc(-c2cccc(Nc3cc(NC(=O)C4CC4)nnc3C(=O)NC)c2OC)no1 [Example 3, 6-cyclopropaneamido-4-({3-[5-(ethoxymethyl)-1,2,4-oxadiazol-3-yl]-2-methoxyphenyl}amino)-N-(^2H3)methylpyridazine-3-carboxamide]
5 | 9 nM | – | – | CNC(=O)c1nnc(NC(=O)C2CC2)cc1Nc1cccc(-c2noc(CCOC)n2)c1OC [Example 4, 6-cyclopropaneamido-4-({2-methoxy-3-[5-(2-methoxyethyl)-1,2,4-oxadiazol-3-yl]phenyl}amino)-N-(^2H3)methylpyridazine-3-carboxamide]
6 | 91 nM | 64 ×10⁻⁶ cm/s | 0.7 | [2H]C([2H])([2H])NC(=O)c1nnc(NC(=O)C2CC2)cc1Nc1cccc(-c2noc(CCF)n2)c1OC [Example 5, 6-(cyclopropanecarboxamido)-4-((3-(5-(2-fluoroethyl)-1,2,4-oxadiazol-3-yl)-2-methoxyphenyl)amino)-N-(methyl-d3)pyridazine-3-carboxamide]
7 | 42 nM | 78.5 ×10⁻⁶ cm/s | 0.5 | [2H]C([2H])([2H])NC(=O)c1nnc(NC(=O)C2CC2)cc1Nc1cccc(-c2cocn2)c1OC [Example 6, 6-(cyclopropanecarboxamido)-4-((2-methoxy-3-(oxazol-4-yl)phenyl)amino)-N-(methyl-d3)pyridazine-3-carboxamide]
8 | 431 nM | 31.3 ×10⁻⁶ cm/s | 0.6 | [2H]C([2H])([2H])NC(=O)c1nnc(NC(=O)C2CC2)cc1Nc1cccc(-c2ccc(C(F)F)cn2)c1OC [Example 7, 6-(cyclopropanecarboxamido)-4-((3-(5-(difluoromethyl)pyridin-2-yl)-2-methoxyphenyl)amino)-N-(methyl-d3)pyridazine-3-carboxamide]
9 | 248 nM | – | – | CNC(=O)c1nnc(NC(=O)C2CC2)cc1Nc1cccc(-c2cc(C)ncn2)c1OC [Example 8, 6-cyclopropaneamido-4-{[2-methoxy-3-(6-methylpyrimidin-4-yl)phenyl]amino}-N-(^2H3)methylpyridazine-3-carboxamide]
10 | 161 nM | – | – | CNC(=O)c1nnc(NC(=O)C2CC2)cc1Nc1cccc(-c2ncns2)c1OC [Example 9, 6-cyclopropaneamido-4-{[2-methoxy-3-(1,2,4-thiadiazol-5-yl)phenyl]amino}-N-(^2H3)methylpyridazine-3-carboxamide]
11 | 219 nM | – | – | CNC(=O)c1nnc(NC(=O)C2CC2)cc1Nc1cccc(-c2cnc(F)cn2)c1OC [Example 10, 6-cyclopropaneamido-4-{[3-(5-fluoropyrazin-2-yl)-2-methoxyphenyl]amino}-N-(^2H3)methylpyridazine-3-carboxamide]
12 | 165 nM | – | – | CNC(=O)c1nnc(NC(=O)C2CC2)cc1Nc1cccc(-c2cnc(C3CC3)cn2)c1OC [Example 11, 6-cyclopropaneamido-4-{[3-(5-cyclopropylpyrazin-2-yl)-2-methoxyphenyl]amino}-N-(^2H3)methylpyridazine-3-carboxamide]
13 | 44 nM | – | – | CNC(=O)c1nnc(NC(=O)C2CC2)cc1Nc1cccc(-c2cnc([N+](=O)[O-])cn2)c1OC [Example 12, 6-cyclopropaneamido-4-{[2-methoxy-3-(5-nitropyrazin-2-yl)phenyl]amino}-N-(^2H3)methylpyridazine-3-carboxamide]
14 | 51 nM | – | – | CNC(=O)c1nnc(NC(=O)C2CC2)cc1Nc1cccc(-c2nc(C)ns2)c1OC [Example 13, 6-cyclopropaneamido-4-{[2-methoxy-3-(3-methyl-1,2,4-thiadiazol-5-yl)phenyl]amino}-N-(^2H3)methylpyridazine-3-carboxamide]
15 | 99 nM | 30.9 ×10⁻⁶ cm/s | 1 | [2H]C([2H])([2H])NC(=O)c1nnc(NC(=O)C2CC2)cc1Nc1cc(F)cc(-c2cnc(C3(O)CCC3)cn2)c1OC [Example 15, 6-cyclopropaneamido-4-({5-fluoro-3-[5-(1-hydroxycyclobutyl)pyrazin-2-yl]-2-methoxyphenyl}amino)-N-(^2H3)methylpyridazine-3-carboxamide]
16 | 197 nM | 19.4 ×10⁻⁶ cm/s | 0.5 | [2H]C([2H])([2H])NC(=O)c1nnc(NC(=O)C2CC2)cc1Nc1cc(F)cc(-c2cnc(C3CC3)cn2)c1OC [Example 16, 6-(cyclopropanecarboxamido)-4-((3-(5-cyclopropylpyrazin-2-yl)-5-fluoro-2-methoxyphenyl)amino)-N-(methyl-d3)pyridazine-3-carboxamide]
17 | 63 nM | 47.4 ×10⁻⁶ cm/s | 0.4 | [2H]C([2H])([2H])NC(=O)c1nnc(NC(=O)C2CC2)cc1Nc1cccc(-c2coc(C)n2)c1OC [Example 17, 6-(cyclopropanecarboxamido)-4-((2-methoxy-3-(2-methyloxazol-4-yl)phenyl)amino)-N-(methyl-d3)pyridazine-3-carboxamide]
18 | 152 nM | 25.9 ×10⁻⁶ cm/s | 0.7 | [2H]C([2H])([2H])NC(=O)c1nnc(NC(=O)C2CC2)cc1Nc1cccc(-c2nc(C)oc2C)c1OC [Example 18, 6-cyclopropaneamido-4-{[3-(2,5-dimethyl-1,3-oxazol-4-yl)-2-methoxyphenyl]amino}-N-(^2H3)methylpyridazine-3-carboxamide]

Row | Structure (SMILES) | IC50 [1] | Papp A→B at 2 h, 3 μM [2] | efflux ratio at 2 h, 3 μM [2]
19 | [2H]C([2H])([2H])NC(=O)c1nnc(NC(=O)C2CC2)cc1Nc1cc(C)cc(-c2cnc(C3(O)CCC3)cn2)c1OC [Example 14, 6-(cyclopropanecarboxamido)-4-((3-(5-(1-hydroxycyclobutyl)pyrazin-2-yl)-2-methoxy-5-methylphenyl)amino)-N-(methyl-d3)pyridazine-3-carboxamide] | 148 nM | 37.8 ×10⁻⁶ cm/s | 0.9

Source: patent US20240317718A1, “SUBSTITUTED HETEROCYCLIC COMPOUNDS” (BRISTOL-MYERS SQUIBB COMPANY, priority 2021, published 2024)
